Columns and labels:
Format in all cases: in vivo
Amaranthus retroflexus [1] = experiment: Example B1 herbicidal action, post-emergence, seed trays in climatic chamber (score 10=total damage to plant, 0=no damage to plant); settings: Application post-emergence, 1000 g/ha, evaluated after 9 days
Procedure: (§1) Seeds of a variety of test species were sown in sterilised standard soil in seed trays each having 96 cells. After cultivation for 8 to 9 days cultivation (post-emergence) under controlled conditions in a climatic chamber (cultivation at 23/17° C., day/night; 13 hours light; 50-60% humidity), the plants were treated with an aqueous spray solution of 1000 mg/l of the active ingredient dissolved in 10% DMSO (dimethyl sulfoxide, CAS RN 67-68-5) as a solvent, equivalent to 1000 g/ha. The plants were grown in the climatic chamber after application at (24/19° C., day/night; 13 hours light; 50-60% humidity) and watered twice daily. After 9 days until the test was evaluated (10=total damage to plant, 0=no damage to plant)

Nasturtium officinale = experiment: as above; settings: Application post-emergence, 1000 g/ha, evaluated after 9 days
Procedure: as §1

Solanum nigrum = experiment: as above; settings: Application post-emergence, 1000 g/ha, evaluated after 9 days
Procedure: as §1

Stellaria media = experiment: as above; settings: Application post-emergence, 1000 g/ha, evaluated after 9 days
Procedure: as §1

Alopecurus myosuroides = experiment: Example B3 herbicidal action, post-emergence, small pots in glasshouse (score 10=total damage to plant, 0=no damage to plant); settings: Application post-emergence, 1000 g/ha, evaluated after 13 days
Procedure: (§2) Seeds of a variety of test species were sown in sterilised compost in small pots. After cultivation for seven days (post-emergence) in controlled conditions in the glasshouse (at 24/16° C., day/night; 14 hours light; 65% humidity) the plants were sprayed with 1 mg of the active ingredient, formulated in 2.5 ml acetone/water (50:50) solution, which is equivalent to 1000 g/ha. Once the foliage was dry, the pots were kept in the glasshouse (at 24/16° C., day/night; 14 hours light; 65% humidity), and were watered twice daily. After 13 days the test was evaluated (10=total damage to plant, 0=no damage to plant).

Amaranthus retroflexus [2] = experiment: as above; settings: Application post-emergence, 1000 g/ha, evaluated after 13 days
Procedure: as §2

Chenopodium album = experiment: as above; settings: Application post-emergence, 1000 g/ha, evaluated after 13 days
Procedure: as §2

Digitaria sanguinalis = experiment: as above; settings: Application post-emergence, 1000 g/ha, evaluated after 13 days
Procedure: as §2

[3] = test system: test plants (a variety of test species); experiment: Example B2 herbicidal action, post-emergence, pots in glasshouse, evaluated after 13 days (score 10=total damage to plant; 0=no damage to plant); settings: same protocol as Example B2 (post-emergence, evaluated after 13 days)
Procedure: Seeds of a variety of test species were sown in standard soil in pots. After 8 days cultivation (post-emergence) under controlled conditions in a glasshouse (at 24/16° C., day/night; 14 hours light; 65% humidity), the plants were sprayed with an aqueous spray solution derived from the formulation of the technical active ingredient in acetone/water (50:50) solution containing 0.5% Tween 20 (polyoxyethelyene sorbitan monolaurate, CAS RN 9005-64-5). The test plants were then grown in a glasshouse under controlled conditions in a glasshouse (at 24/16° C., day/night; 14 hours light; 65% humidity) and watered twice daily. After 13 days, the test was evaluated (10=total damage to plant; 0=no damage to plant).

SMILES | AMARE (damage to plant) (Amaranthus retroflexus [1]) | NAAOF (damage to plant) (Nasturtium officinale) | SOLNI (damage to plant) (Solanum nigrum) | STEME (damage to plant) (Stellaria media) | ALOMY (damage to plant) (Alopecurus myosuroides) | AMARE (damage to plant) (Amaranthus retroflexus [2]) | CHEAL (damage to plant) (Chenopodium album) | DIGSA (damage to plant) (Digitaria sanguinalis) | damage to the test plants [3]
CC(C)(C)C(=O)Oc1c(-c2ccccc2OC(F)(F)F)c(=O)n(CC(F)F)c2nccnc12 [A1] | 0 | 8 | 6 | 7 |  |  |  |  | 
CC(C)(C)C(=O)Oc1c(-c2c(F)ccc(F)c2Cl)c(=O)n(CC(F)F)c2nccnc12 [A2, 2,2-dimethyl-propionic acid 7-(2-chloro-3,6-difluoro-phenyl)-5-(2,2-difluoro-ethyl)-6-oxo-5,6-dihydro-pyrido[2,3-b]pyrazin-8-yl ester] | 4 | 9 | 6 | 9 |  |  |  |  | 
CC(C)C(=O)Oc1c(-c2c(F)ccc(F)c2Cl)c(=O)n(CC(F)F)c2nccnc12 [A3] | 6 | 7 | 5 | 9 |  |  |  |  | 
CC(C)C(=O)Oc1c(-c2cccc(C(F)(F)F)c2Cl)c(=O)n(CC(F)F)c2nccnc12 [A4] |  |  |  |  | 0 | 10 | 10 | 7 | 
Cc1ccc(Cl)c(-c2c(OC(=O)C(C)(C)C)c3nccnc3n(CC(F)F)c2=O)c1F [A5] | 4 | 5 | 2 | 7 |  |  |  |  | 
Cc1ccc(Cl)c(-c2c(OC(=O)C(C)C)c3nccnc3n(CC(F)F)c2=O)c1F [A6] | 5 | 7 | 0 | 7 |  |  |  |  | 
CC(C)C(=O)Oc1c(-c2cc(C(F)(F)F)ccc2Cl)c(=O)n(CC(F)F)c2nccnc12 [A7] | 4 | 7 | 5 | 8 |  |  |  |  | 
CC(C)(C)C(=O)Oc1c(-c2cc(C(F)(F)F)ccc2Cl)c(=O)n(CC(F)F)c2nccnc12 [A8] | 6 | 7 | 6 | 7 |  |  |  |  | 
Cc1cnc2c(n1)c(OC(=O)C(C)(C)C)c(-c1c(F)ccc(F)c1Cl)c(=O)n2CC(F)F [A29] |  |  |  |  |  |  |  |  | no damage or very little damage
Cc1cnc2c(OC(=O)C(C)(C)C)c(-c3c(F)ccc(F)c3Cl)c(=O)n(CC(F)F)c2n1 [A30] |  |  |  |  |  |  |  |  | no damage or very little damage
CC(C)(C)C(=O)Oc1c(-c2c(F)ccc(F)c2Cl)c(=O)n(CC(F)F)c2ncc(-c3ccccc3)nc12 [A31] |  |  |  |  |  |  |  |  | no damage or very little damage
CC(C)(C)C(=O)Oc1c(-c2ccccc2I)c(=O)n(CC(F)F)c2nccnc12 [A36] |  |  |  |  | 8 | 10 | 10 | 5 | 
O=c1c(-c2cccc(C(F)(F)F)c2Cl)c(O)c2nccnc2n1CC(F)F [B1] | 0 | 6 | 6 | 5 |  |  |  |  | 
O=c1c(-c2c(F)ccc(F)c2Cl)c(O)c2nccnc2n1CC(F)F [B2, 7-(2-chloro-3,6-difluoro-phenyl)-5-(2,2-difluoro-ethyl)-8-hydroxy-5H-pyrido[2,3-b]pyrazin-6-one] | 6 | 8 | 5 | 8 |  |  |  |  | 
